Experimental data reported in patent publication US12691070B2, “Cationic lipids and preparation method thereof” (RiboX Therapeutics HK Limited, priority 2023, dated 2026).

What was measured:
RAW 264.7 cells [1] = assay: In vitro expression of firefly-luciferase, RAW 264.7; assay type: cell-based; settings: cirRNA (SEQ ID NO: 1) LNPs; firefly-luciferase luminescence; RAW 264.7 cells
Protocol: (§1) RAW 264.7 and Hep G2 cells were transfected with 100 ng/mL of RNA-LNPs encoding for firefly-luciferase. At 72 hours post transfection, the cells were washed and lysed. The luciferase expression was determined in the cell lysates with the luciferase assay reagent kit (Promega), according to the kit protocol, luciferase activity was measured by a luminometer.

Hep G2 cells [2] = assay: In vitro toxicity (CellTiter-Glo cell viability), Hep G2; assay type: cell-based; settings: cirRNA (SEQ ID NO: 1) LNPs; Hep G2 cells;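 note: percent of untreated cells luminescence signal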
Protocol: (§2) RAW 264.7 and Hep G2 cells were transfected with 1 μg/mL RNA-LNPs. At 72 hours post transfection, cell viability was determined with the CellTiter-Glo® reagent kit, according to the kit protocol, measured by a luminometer.
(§3) The cell viability was calculated according to the following formula: […]

[3] = RNA encapsulation efficacy by Quant-IT Ribogreen kit; assay type: physicochemical; settings: LNP with cirRNA (SEQ ID NO: 1)
Protocol: (§4) Ionizable lipid, DSPC, Cholesterol and DMG-PEG 2000 were mixed at a molar ratio of 50:10:38.5:1.5 in absolute ethanol. Circular RNA and linear mRNA payloads were suspended in 25 mM Acetate Buffer (pH 4.5). To form LNPs, three volumes of luciferase encoding RNA, in the form of cirRNA (SEQ ID NO:1) and mRNA (SEQ ID NO:2) respectively, were mixed with one volume of lipids in ethanol solution by microfluidic mixing with the Nanoassemblr Ignite (Precision Nanosystems) at a flow rate of 12 ml/min. The molar ratio of ionizable lipid to ribonucleotide was 15 or 6. The final lipid concentration in solution ranged from 1.5 mM to 6 mM. After encapsulation, the particles were dialyzed twice against PBS.
(§5) The LNP size and polydispersity index (PDI), determined by dynamic light scattering (DLS), and zeta potential were measured by a Zetasizer machine (Malvern). RNA concentration and encapsulation efficacy were analyzed by the Quant-IT Ribogreen kit by calculating the percentage encapsulation at 100%−(RNA-LNPs/RNA-LNPs with Triton X-100).

Hep G2 cells [4] = assay: In vitro expression of firefly-luciferase, Hep G2; assay type: cell-based; settings: cirRNA (SEQ ID NO: 1) LNPs; firefly-luciferase luminescence; Hep G2 cells
Protocol: as §1

[5] = LNP zeta potential (Zetasizer); assay type: physicochemical; settings: LNP with cirRNA (SEQ ID NO: 1)
Protocol: as §4, §5

[6] = LNP size and polydispersity index (PDI) by dynamic light scattering; assay type: physicochemical; settings: LNP with cirRNA (SEQ ID NO: 1); for Size: in nm (unit assumed)
Protocol: as §4, §5

BALB/C mice = assay: In vivo expression, whole-body luminescence (IVIS); settings: cirRNA (SEQ ID NO: 1) LNPs, BALB/C mice
Protocol: 6-8 week old, female BALB/C mice were injected with 0.05 mg*kg-1 of RNA-LNPs encoding for firefly-luciferase by intravenous injection. At 6 hours post injection, animals were intraperitoneally injected with 15 mg/ml of Luciferin substrate and whole-body luminescence was determined by a bioluminescent in vivo imaging system (IVIS).

RAW 264.7 cells [7] = assay: In vitro toxicity (CellTiter-Glo cell viability), RAW 264.7; assay type: cell-based; settings: cirRNA (SEQ ID NO: 1) LNPs; RAW 264.7 cells;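 note: percent of untreated cells luminescence signal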
Protocol: as §2, §3

Structure (SMILES)	In vitro Expression RAW (RAW 264.7 cells [1])	In vitro Viability HepG2 (Hep G2 cells [2])	Encapsulation Efficiency % [3]	In vitro Expression HepG2 (Hep G2 cells [4])	Zeta (mV) [5]	PDI [6]	Size [6]	In vivo Expression (Whole Body) (BALB/C mice)	In vitro Viability RAW (RAW 264.7 cells [7])
CCCCCCCC/C=C\CCCCCCCCN(CCCCCCCCOC(=O)C(CCCCCC)CCCCCCCC)CCOC(=O)NCc1ncc[nH]1 (stereo not drawn) [Lipid 212]	1.44E+05	99%	93%	6.37E+04	−3.175 mV	0.1853	65.77	4.68E+06	82%
CCCCCCCOC(=O)CCCCCCCCCN(CCCCCCCCCC(=O)OCCCCCCC)CCOC(=O)NCCN1CCCC1 [Lipid 119, diheptyl 10,10′-((2-(((2-(pyrrolidin-1-yl)ethyl)carbamoyl)oxy)ethyl)azanediyl)bis(decanoate)]	1.47E+04	17%	96%	1.46E+03	9.53 mV	0.064	142.1	9.30E+05	8%
CCCCCCCCC(CCCCCCCC)OC(=O)CCCCCCCN(CCCCCCCCOC(=O)C(CCCCCC)CCCCCCCC)CCCOC(=O)NCCN1CCN(C)CC1 (stereo not drawn) [Lipid 347]	4.27E+04	92%	94%	1.04E+06	−0.6677 mV	0.2462	90.56	7.61E+06	96%
CCCCC/C=C\C/C=C\CCCCCCCCN(CCCCCCCC/C=C\C/C=C\CCCCC)CCOC(=O)NCCN(C)C [Lipid 41, 2-(di((9Z,12Z)-octadeca-9,12-dien-1-yl)amino)ethyl (2-(dimethylamino)ethyl)carbamate]	1.12E+05	89%	91%	2.77E+01	5.74 mV	0.163	186	4.69E+04	70%
CCCCCCCCC(CCCCCC)C(=O)OCCCCCCCCN(CCCCCCCCOC(=O)C(CCCCCC)CCCCCCCC)CCCOC(=O)NCCN1CCCC1 (stereo not drawn) [Lipid 379]	1.60E+06	45%	92%	1.16E+07	3.38 mV	0.1919	117.2	2.86E+07	72%
CCCCCCCCCC(=O)OCCCCCCCCN(CCCCCCCCOC(=O)CCCCCCCCC)CCOC(=O)NCc1ncc[nH]1 [Lipid 203]	7.82E+04	103%	73%	1.12E+04	−0.09389 mV	0.08783	98.65	6.84E+06	91%
CCCCCCCOC(=O)CCCCCCCCCN(CCCCCCCCCC(=O)OCCCCCCC)CCOC(=O)NCCCN(CC)CC [Lipid 122, heptyl 3-ethyl-12-(10-(heptyloxy)-10-oxodecyl)-8-oxo-9-oxa-3,7,12-triazadocosan-22-oate]	2.24E+04	17%	96%	2.48E+03	10.84 mV	0.187	134.6	1.43E+05	8%
CCCCCCCCCC(=O)OCCCCCCCN(CCCCCCCCOC(=O)C(CCCCCC)CCCCCCCC)CCCOC(=O)NCc1ncc[nH]1 (stereo not drawn) [Lipid 360]	1.63E+05	113%	85%	1.22E+05	−2.27 mV	0.2143	82.84	7.50E+07	86%
CCCCCCCCC(CCCCCC)C(=O)OCCCCCCCCN(CCCCCCCCCCC(=O)OCCCCCC)CCOC(=O)NCCN1CCN(C)CC1 (stereo not drawn) [Lipid 46, hexyl 11-((8-((2-hexyldecanoyl)oxy)octyl)(2-(((2-(4-methylpiperazin-1-yl)ethyl)carbamoyl)oxy)ethyl)amino)undecanoate]	3.51E+02	102%	100%	3.70E+01	3.255 mV	0.088	137.6	1.92E+06	99%
CCCCCCCC/C=C\CCCCCCCCN(CCCCCCCCOC(=O)C(CCCCCC)CCCCCCCC)CCOC(=O)NCCN(C)C (stereo not drawn) [Lipid 211]	2.36E+05	90%	94%	1.14E+07	7.113 mV	0.2243	97.77	1.09E+07	91%
CCCCCCCCCCCOC(=O)CCCCCN(CCCCCCCC(=O)OC(CCCCCCCC)CCCCCCCC)CCOC(=O)NCCN1CCCC1 [Lipid 164]	9.56E+04	74%	75%	3.92E+06	3.42 mV	0.2218	76.41	7.11E+07	86%
CCCCC/C=C\C/C=C\CCCCCCCCN(CCCCCCCC(=O)OC(CCCCCCCC)CCCCCCCC)CCCOC(=O)NCCCN(C)C [Lipid 275]	4.30E+05	102%	95%	7.54E+06	6.337 mV	0.2727	60	3.66E+06	129%
CCCCCCCCCCCOC(=O)CCCCCN(CCCCCCCC(=O)OC(CCCCCCCC)CCCCCCCC)CCOC(=O)NCc1ncc[nH]1 [Lipid 159, heptadecan-9-yl 8-((2-((((1H-imidazol-2-yl)methyl)carbamoyl)oxy)ethyl)(6-oxo-6-(undecyloxy)hexyl)amino)octanoate]	4.41E+04	92%	84%	8.41E+05	−5.631 mV	0.1754	57.86	1.95E+07	90%
CCCCC/C=C\CCOC(=O)CCCCCN(CCCCCCCCOC(=O)C(CCCCCC)CCCCCCCC)CCOC(=O)NCCCN(CC)CC (stereo not drawn) [Lipid 186]	2.82E+02	88%	90%	1.51E+05	14.31 mV	0.4618	122.7	2.96E+06	0%
CCCCCCCCCCCOC(=O)CCCCCN(CCCCCC(=O)OCCCCCCCCCCC)CCOC(=O)NCCCN(C)C [Lipid 153]	2.44E+02	120%	89%	1.95E+04	18.95 mV	0.09308	71.11	1.02E+05	104%
CCCCCCCCC(CCCCCC)C(=O)OCCCCCCCCN(CCCCCCCCOC(=O)C(CCCCCC)CCCCCCCC)CCOC(=O)NCc1ccc(NC(=O)OC(C)(C)C)cc1 (stereo not drawn) [Lipid 8, ((2-(((4-((tert-butoxycarbonyl)amino)benzyl)carbamoyl)oxy)ethyl)azanediyl)bis(octane-8,1-diyl) bis(2-hexyldecanoate)]	6.90E+01	110%	84%	2.33E+01	−20.4 mV	0.162	80.1	9.52E+04	105%
